According to article PMC12466451 (Antibiotics, 2025):

Experiment: Surfactin C metabolism study: metabolic stability in liver microsomes with NADPH
Type: in vitro ADME, chicken
Conditions: for percentage of initial concentration remaining after incubation with microsomes: chicken liver microsomes 0.5 mg/mL, NADPH, 1.0 µM, 37 °C, 120 min; for k (elimination rate constant) / t1/2: chicken liver microsomes; for k (elimination rate constant): slope of ln-concentration versus time plot, 0-120 min; for t1/2: t1/2 = ln(2)/k
Method: After determining the presence of surfactin C analogues in F1, BPR-17 and BPR-16, an in vitro metabolism assay was conducted to investigate the bioavailability and stability of these compounds. This study involved incubating the bioactive metabolites with liver microsomes obtained from chickens to predict and evaluate their potential efficacy and bioavailability once digested. The microsomal assay was performed by first harvesting the chicken microsomes from the liver. Once obtained, these were incubated with the surfactin C compounds in the presence of NADPH, which serves as an essential cofactor for cytochrome P450 enzymes. The degradation of surfactin C analogues over time was monitored by measuring their peak areas using LC-MS/MS [29]. Additionally, a positive control compound (verapamil) was used to confirm the metabolic activity of the liver microsomes.
Preparation of microsomes from liver tissue was performed according to the protocols developed by Knights et al. 2016 [45]. Livers from chickens approximately 42 days old were obtained from Golden Cockerel poultry processors (Mount Cotton, QLD, Australia). Immediately after harvesting, the livers were washed in 1.15% KCl in lab grade H2O to remove excess blood and transported to the laboratory on ice for processing. To prepare the microsomes, 10 g of liver tissue was homogenized in buffer (10 mM potassium phosphate, pH 7.4) using an Ultraturrax-style homogeniser with three 30-s bursts, cooling the sample on ice between each burst. The homogenate was then centrifuged at 7000× g for 10 min at 4 °C. The crude pellet was discarded, and the supernatant was further separated by ultracentrifugation at 105,000× g for 60 min at 4 °C. The supernatant was decanted, and the pellet was rinsed with 1 mL of microsome buffer. The rinsing and ultracentrifugation process was repeated twice, and the resulting pellet was resuspended in microsome storage buffer and stored at −80 °C until further use. A Bradford assay was used to determine the concentration of the protein in the sample [46].
The test compounds C13-C1_6 surfactin C (10.0 mM) were prepared in DMSO, and the metabolic stability of test compounds was determined in triplicate in an oscillating water bath (Grant) at 37 °C and 150 RPM [25]. Positive control (verapamil; 0.001 mM) and negative control (without NADPH regeneration system) incubations were conducted concurrently. Tubes containing potassium phosphate buffer (100 mM) at pH 7.4, microsomal protein stock solution (0.5 mg/mL), test compound solution (1.0 µM) and glucose-6-phosphate dehydrogenase (1 IU/mL) were preincubated at 37 °C for 5 min prior to the reaction being initiated by the addition of 25 µL of a 20× stock of an NADPH regeneration system (NRS) containing NADP (1.3 mM). The total incubation volume was 0.5 mL. The mixture was then incubated at 37 °C in an oscillating water bath (Grant) at 150 RPM for 0, 10, 20, 30, 60, and 120 min. At each time point, reactions were terminated by the addition of 150 µL of ice-cold acetonitrile containing cyclosporin A (60 ng/mL) as an internal standard for test compounds or clotrimazole (50 ng/mL) for verapamil. The test tubes were centrifuged at 13,000× g for 5 min, and ~100 µL of supernatant was transferred to polypropylene 96-well plates for LC-MS/MS analysis using a Waters ALLIANCE HPLC system coupled to a Waters Quattro Micro triple quadrupole mass spectrometer (Milford, MA, USA). Chromatographic separation was achieved using a Phenomenex HPLC C18 column (4.6 × 50 mm, 3 µm). Mass spectrometric detection was performed in negative ion multiple reaction monitoring mode with argon as the collision gas. Data acquisition and processing were carried out using MassLynx software (version 4.1, Waters). The half-life (t1/2) of each test compound was calculated using the equation t1/2 = ln(2)/k, where k is the elimination rate constant derived from the slope obtained from the ln-concentration versus time plot.

Substance | percentage of initial concentration remaining after incubation with microsomes | k (elimination rate constant) | t1/2 [h]
C16 surfactin C | ~92% | 0.0007 | 16.5
C13 surfactin C | approximately 84% | – | 19.25
C14 surfactin C | ~95% | – | –
C15 surfactin C | ~99% | 0.0008 | 14.438
